# Assay results published in US11472778B2, “Hepatitis C virus NS3/4A protease inhibitors” (priority 2017, dated 2022).
# Where two headings read alike, the source gives them in different places.
# Tests used:
# [1] = tested on: HCV replicon D168V variant in Huh7 cells; assay: microbe, parasite or virus in culture; assay type: cell-based, Hepatitis C virus; details: for EC50: Hepatitis C virus; for Replicon EC50 (Fold change) D168V: Table 4, relative to WT replicon
# Method: (§1) Mutations (R155K, A516T, D168A and D168V) were constructed by site-directed mutagenesis using a Con1 (genotype 1b) luciferase reporter replicon containing the H77 (genotype 1a) NS3 sequence.
# Replicon RNA of each protease variant was introduced into Huh7 cells by electroporation. Replication was then assessed in the presence of increasing concentrations of protease inhibitors by measuring luciferase activity (relative light units) 96 h after electroporation. […]
# [2] = biological target: GT1a D168A NS3/4A protease; assay type: biochemical, Hepatitis C virus; details: Table 3; Ki D168A relative to GT1a WT
# Method: (§2) For each assay, 2 nM of NS3/4A protease (GT1, D168A and GT3) was pre-incubated at room temperature for 1 h with increasing concentration of inhibitors in assay buffer [50 mM Tris, 5% glycerol, 10 mM DTT, 0.6 mM LDAO, and 4% dimethyl sulfoxide]. Inhibition assays were performed in nonbinding surface 96-well black half-area plates (Corning) in a reaction volume of 60 μt. […] Three independent data sets were collected for each inhibitor with each protease construct.
# as §2, with “(GT1a” for “(GT1, D168A”, “D168A)” for “GT3)”, “(50” for “[50”, “sulfoxide, pH 7.5).” for “sulfoxide].”, “non-binding” for “nonbinding”, “μL.” for “μt.”
# (§3) For each assay, 2 nM of NS3/4A protease (GT1a, R155K and D168A) was pre-incubated at room temperature for 1 h with increasing concentration of inhibitors in assay buffer (50 mM Tris, 5% glycerol, 10 mM DTT, 0.6 mM LDAO, and 4% dimethyl sulfoxide, pH 7.5). Inhibition assays were performed in non-binding surface 96-well black half-area plates (Corning) in a reaction volume of 60 μL. […] Three independent data sets were collected for each inhibitor with each protease construct. […] Gibbs free energy of binding was calculated using the following equation: ΔG=RTlnKi
# [3] = biological target: T1, GT1a D168A NS3/4A protease (UniProt P27958, C1185S/D1194A, species not given); assay type: biochemical, Hepatitis C virus; details: read-out: Ki (nM) GT1a D168A NS3/4A Protease
# T1 construct: Ki (nM) GT1a D168A NS3/4A Protease
# Method: as §2
# (§4) For each assay, 2 nM of NS3/4A protease (GT1a and D168A) was pre-incubated at room temperature for 1 h with increasing concentration of inhibitors in assay buffer (50 mM Tris, 5% glycerol, 10 mM DTT, 0.6 mM LDAO, and 4% dimethyl sulfoxide, pH 7.5). Inhibition assays were performed in non-binding surface 96-well black half-area plates (Corning) in a reaction volume of 60 μL. […] Three independent data sets were collected for each inhibitor with each protease construct.
# as §3
# [4] = biological target: T2, wild-type GT1a NS3/4A protease (UniProt P27958, C1185S, species not given); assay type: biochemical, Hepatitis C virus; details: read-out: Ki (nM) GT1a WT NS3/4A Protease
# T2 construct: Ki (nM) GT1a WT NS3/4A Protease
# Method: as §2, §4, §3
# [5] = tested on: HCV replicon A156T variant in Huh7 cells; assay: microbe, parasite or virus in culture; assay type: cell-based, Hepatitis C virus; details: for EC50: Hepatitis C virus; for Replicon EC50 (Fold change) A156T: Table 4, relative to WT replicon
# Method: as §1
# (§5) Replicon RNA of each protease variant was introduced into Huh7 cells by electroporation. Replication was then assessed in the presence of increasing concentrations of protease inhibitors by measuring luciferase activity (relative light units) 96 h after electroporation.
# (§6) Mutations (R155K, D168A and A156T) were constructed by site-directed mutagenesis using a Con1 (genotype 1b) luciferase reporter replicon containing the H77 (genotype 1a) NS3 sequence.^6 Replicon RNA of each protease variant was introduced into Huh7 cells by electroporation. Replication was then assessed in the presence of increasing concentrations of protease inhibitors by measuring luciferase activity (relative light units) 96 h after electroporation.
# [6] = tested on: HCV replicon D168A variant in Huh7 cells; assay: microbe, parasite or virus in culture; assay type: cell-based, Hepatitis C virus; details: for EC50: Hepatitis C virus; for Replicon EC50 (Fold change) D168A: Table 4, relative to WT replicon
# Method: as §1, §5, §6
# [7] = tested on: HCV replicon R155K variant in Huh7 cells; assay: microbe, parasite or virus in culture; assay type: cell-based, Hepatitis C virus; details: for EC50: Hepatitis C virus; for Replicon EC50 (Fold change) R155K: Table 4, relative to WT replicon
# Method: as §1, §5, §6
# [8] = tested on: wild-type HCV replicon in Huh7 cells; assay: Cell-based drug susceptibility (replicon) assay, wild-type; details: Hepatitis C virus, read-out: Replicon EC50 (nM) WT
# Method: as §1, §5, §6
# [9] = Huh-7, 96 h, read-out: Replicon EC50 (nM) D168V, Table 2, Huh7 cells, luciferase 96 h
# [10] = Huh-7, read-out: Replicon EC50 (nM) D168V, Table 4
# [11] = Huh-7, 96 h, read-out: Replicon EC50 (nM) A156T, Table 2, Huh7 cells, luciferase 96 h
# [12] = Huh-7, read-out: Replicon EC50 (nM) A156T, Table 4
# [13] = Huh-7, 96 h, read-out: Replicon EC50 (nM) D168A, Table 2, Huh7 cells, luciferase 96 h
# [14] = Huh-7, read-out: Replicon EC50 (nM) D168A, Table 4
# [15] = Huh-7, 96 h, read-out: Replicon EC50 (nM) R155K, Table 2, Huh7 cells, luciferase 96 h
# [16] = Huh-7, read-out: Replicon EC50 (nM) R155K, Table 4
# [17] = Huh-7, 96 h, Table 2, Huh7 cells, luciferase 96 h
SMILES,"EC50 [1, 9] [nM]","EC50 [1, 10] [nM]",Replicon EC50 (Fold change) D168V [1],Ki (Fold change) GT1a D168A NS3/4A Protease [2],Ki ([3]; Table 1) [nM],Ki ([3]; Table 3) [nM],Ki ([4]; Table 1) [nM],Ki ([4]; Table 3) [nM],"EC50 [5, 11] [nM]","EC50 [5, 12] [nM]",Replicon EC50 (Fold change) A156T [5],"EC50 [6, 13] [nM]","EC50 [6, 14] [nM]",Replicon EC50 (Fold change) D168A [6],"EC50 [7, 15] [nM]","EC50 [7, 16] [nM]",Replicon EC50 (Fold change) R155K [7],"EC50 [8, 17] [nM]","EC50 ([8]; Huh-7, Table 4) [nM]"
COc1ccc2nc(C(C)C)c(O[C@@H]3C[C@H]4C(=O)N[C@]5(C(=O)NS(=O)(=O)C6CC6)C[C@H]5/C=C\CCCCC[C@H](NC(=O)OC(C)(C)C)C(=O)N4C3)nc2c1 [Compound 18e],23.7,23.7,(17) fold,(56) fold,239,239 ± 20,4.27,4.27,25.7,25.7,(18) fold,15.3,15.3,(11) fold,5.02,5.02,(4) fold,1.43,1.43
"O=C(N[C@H]1CCCCC/C=C\[C@@H]2C[C@@]2(C(=O)NS(=O)(=O)C2CC2)NC(=O)[C@@H]2C[C@@H](Oc3nc4ccccc4nc3-c3cccs3)CN2C1=O)OC1CCCC1 [Compound 22f, Cyclopentyl ((2R,6S,13aS,14aR,16aS,Z)-14a-((cyclopropylsulfonyl)carbamoyl)-5,16-dioxo-2-((3-(thiophen-2-yl)quinoxalin-2-yl)oxy)-1,2,3,5,6,7,8,9,10,11,13a,14,14a,15,16,16a-hexadecahydrocyclopropa[e]pyrrolo[1,2-a][1,4]diazacyclopentadecin-6-yl)carbamate]",70,70,(175) fold,(566) fold,900,900 ± 81,1.59,1.59,183,183,(458) fold,42.2,42.2,(106) fold,19.2,19.2,(48) fold,0.4,0.4
"COc1ccc2nc(C(C)C)c(O[C@@H]3C[C@H]4C(=O)N[C@]5(C(=O)NS(=O)(=O)C6(C)CC6)C[C@H]5/C=C\CCCCC[C@H](NC(=O)OC5CCCC5)C(=O)N4C3)nc2c1 [Compound 23e, Cyclopentyl ((2R,6S,13aS,14aR,16aS,Z)-2-((3-isopropyl-7-methoxyquinoxalin-2-yl)oxy)-14a-(((1-methylcyclopropyl)sulfonyl)carbamoyl)-5,16-dioxo-1,2,3,5,6,7,8,9,10,11,13a,14,14a,15,16,16a-hexadecahydrocyclopropa[e]pyrrolo[1,2-a][1,4]diazacyclopentadecin-6-yl)carbamate]",18.2,18.2,(31) fold,(116) fold,156,156 ± 17,1.34,1.34,27.6,27.6,(47) fold,7.91,7.91,(13) fold,6.83,6.83,(12) fold,0.59,0.59
